US20130310352A1, “DEXAMETHASONE COMBINATION THERAPY” (priority 2010, published 2013)

Columns and labels:
U266 [1] = test: Annexin V apoptosis assay; type: cell-based, human
Experimental: Apoptotic cells were determined as Annexin V positive cells. […] Compound A induced MM cells apoptosis were measured as described in Materials and Methods.

ARP1 = test: MTS cell growth assay; type: cell-based; details: Homo sapiens, ARP-1, ARP1, 24 hours treatment, read-out: IC50 (concentration at 50% inhibition), cell growth
Experimental: (§1) MM cell lines ARP1, ARK, MM.1S, MM.1R and U266 were maintained in RPMI-1640 medium supplemented with 10% fetal bovine serum, 100 U/ml penicillin and 100 μg/ml streptomycin at 37° C. and 5% CO2 Primary MM cells and MM BMSCs were isolated from bone marrow aspirates of myeloma patients. PBMCs were obtained from healthy volunteers. The study was approved by the Institutional Review Board at The University of Texas M.D. Anderson Cancer Center. Anti-caspase-3, caspase-9, PARP, Bim, XIAP, cyclin D1, pp 70S6K (Thr389) and p27(Kip1) antibodies were purchased from Cell Signaling. Anti-bcl-2, Bc1-XL, Akt, pAkt (Thr 308), pAkt (Ser 473), p70S6K and β-actin antibodies were purchased from Santa Cruz. Compound A was dissolved in DMSO at 10 mM as stock solution. Dexamethasone and Propidium iodide (PI) were purchased from Sigma-Aldrich. Recombinant human IL6 was purchased from R&D Systems. FITC conjugated Annexin V was obtained from Invitrogen.
(§2) All experiments were performed in triplicate.

U266 [2] = test: MTS cell growth assay; type: cell-based; details: Homo sapiens, U-266, U266, 24 hours treatment, read-out: IC50 (concentration at 50% inhibition), cell growth
Experimental: as §1, §2

MM.1S = test: MTS cell growth assay; type: cell-based; details: Homo sapiens, MM1.S, 24 hours treatment, read-out: IC50 (concentration at 50% inhibition), cell growth
Experimental: as §1, §2

MM.1R = test: MTS cell growth assay; type: cell-based; details: Homo sapiens, 24 hours treatment, read-out: IC50 (concentration at 50% inhibition), cell growth
Experimental: as §1, §2

ARK = test: MTS cell growth assay; type: cell-based; details: Homo sapiens, 24 hours treatment, read-out: IC50 (concentration at 50% inhibition), cell growth
Experimental: as §1, §2

Question: With `Nc1cc(C(F)(F)F)c(-c2cc(N3CCOCC3)nc(N3CCOCC3)n2)cn1` [compound A, 5-(2,6-di-morpholin-4-yl-pyrimidin-4-yl)-4-trifluoromethyl-pyridin-2-ylamine] as the compound, how does the “sensitivity to compound A induced apoptosis compared to other MM cell lines” value (U266 [1]) read?
Answer: Its value is “less sensitive”.

Question: And the IC50 (ARP1)?
Answer: The IC50 was 1 to 10 µM.

Question: What about the IC50 (U266 [2]) of the same compound?
Answer: The IC50 was 10 to 100 µM.

Question: And the IC50 (MM.1S)?
Answer: Its IC50 is < 1 µM.

Question: And the IC50 (MM.1R)?
Answer: The IC50 was 1 to 10 µM.

Question: And the IC50 (ARK)?
Answer: Its IC50 is 1 to 10 µM.
